This passage reports Activity results from ChEMBL document CHEMBL3616432, “(+)-Dehydroabietylamine derivatives target triple-negative breast cancer” (Eur J Med Chem, 2015).

Data set [1] concerns HEK293. In words: Cytotoxicity against HEK293 cells at 52 to 65 uM after 72 hrs by CellTiter-Glo assay. The data set is classed as cell-based. The conditions noted are these: human, hek293, 72 h. Background: ATP-based viability assays read luminescence as a measure of living cells.
The species entered for data set [2] is Homo sapiens. In words: Antiproliferative activity against human ER-positive MA11 cells at 52 to 65 uM after 72 hrs by CellTiter-Glo assay. Format: functional.
In data set [3] the test system is MDA-MB-231. Put plainly: Antiproliferative activity against human triple-negative MDA-MB-231 cells at 52 to 65 uM after 72 hrs by CellTiter-Glo assay. Format: functional, cell-based.
The test system of data set [4] is HepG2. In words: Cytotoxicity against human HepG2 cells at 52 to 65 uM after 72 hrs by CellTiter-Glo assay. Conditions: hepg2, 72 h. Format: cell-based.
The subject of data set [5] is MCF7. Put plainly: Antiproliferative activity against human ER-positive MCF7 cells at 52 to 65 uM after 72 hrs by CellTiter-Glo assay. Format: functional, cell-based.
Data set [6] relates to MDA-MB-231. Put plainly: Antiproliferative activity against human triple-negative MDA-MB-231 cells at <= 50 uM after 72 hrs by CellTiter-Glo assay. The data set is classed as functional, cell-based.
Data set [7] deals with HEK293. Put plainly: Cytotoxicity against HEK293 cells at <= 50 uM after 72 hrs by CellTiter-Glo assay. The conditions noted are these: human, hek293, 72 h. The data set is classed as cell-based.
Data set [8] has as its system HepG2. Put plainly: Cytotoxicity against human HepG2 cells at <= 50 uM after 72 hrs by CellTiter-Glo assay. Format: cell-based. Conditions: hepg2, 72 h.
Data set [9] relates to MDA-MB-231. In words: Antiproliferative activity against human triple-negative MDA-MB-231 cells at >52.3 uM after 72 hrs by CellTiter-Glo assay. Format: functional, cell-based.
Data set [10] relates to MDA-MB-231. In words: Antiproliferative activity against human triple-negative MDA-MB-231 cells after 72 hrs by CellTiter-Glo assay. Format: functional, cell-based.

Active and inactive are the calls of the source. The rule behind the calls is not given here.

In the case of `CC(C)c1ccc2c(c1)CC[C@H]1[C@](C)(CNC(=O)C3CC4C=CC3C4)CCC[C@]21C` (some centres undefined), the Activity result in data set [1] and in data set [4] was “Non-toxic” in each case. Further, the result in data set [2], in data set [3] and in data set [5] was inactive.
With `CC(C)c1ccc2c(c1)CC[C@H]1[C@](C)(CNC(=O)[C@@H](C)c3ccccc3)CCC[C@]21C`, the Activity entry in [1] and in [4] was “Non-toxic” throughout. Further, the result in [2], in data set [3] and in data set [5] was inactive.
As to `CC(C)c1cc2c(c(O)c1O)[C@@]1(C(=O)O)CCCC(C)(C)[C@@H]1CC2` [CARNOSIC ACID], in data set [6], the result was Active. For the same compound, the Activity result in data set [7] and in [8] was “Non-toxic” in each case.
For the compound `CC(C)c1ccc2c(c1)CC[C@H]1[C@](C)(CN)CCC[C@]21C`, in data set [6], the result was Active. Moreover, the Activity result in data set [7] and in data set [8] was “Non-toxic” each time.
In the case of `CC(C)c1ccc2c(c1)CC[C@H]1[C@](C)(CNS(=O)(=O)c3c(F)cccc3F)CCC[C@]21C`, the outcome in data set [9] was Active.
Same read-out and setting: with `CC(C)c1ccc2c(c1)CC[C@H]1[C@](C)(CNS(=O)(=O)c3ccc(F)cc3)CCC[C@]21C` the entry was “Active”; with `CC(C)c1ccc2c(c1)CC[C@H]1[C@](C)(CNS(=O)(=O)c3cccc(Cl)c3Cl)CCC[C@]21C`, “Active”.
Consider `CC(C)c1ccc2c(c1)CC[C@H]1[C@](C)(CNS(=O)(=O)c3c(Cl)cc(Cl)cc3Cl)CCC[C@]21C`, for which, in [9], the outcome was Active.
For `CC(C)c1ccc2c(c1)CC[C@H]1[C@](C)(CNC(=O)C3CCCC3)CCC[C@]21C`, the Activity entry in [1] and in data set [4] was “Non-toxic” in each case. Moreover, the result in data set [2], in data set [3] and in data set [5] was inactive.
`CC(C)c1ccc2c(c1)CC[C@H]1[C@](C)(CNC(=O)CC3CCCC3)CCC[C@]21C`: the Activity entry in [1] and in data set [4] was “Non-toxic” throughout. Moreover, the result in data set [2], in [3] and in data set [5] was inactive.
On to `CC(C)c1ccc2c(c1)CC[C@H]1[C@](C)(CNC(=O)c3ccc(Cl)cc3Cl)CCC[C@]21C`, for which the Activity entry in data set [1] and in data set [4] was “Non-toxic” throughout. The result in data set [2], in [3] and in data set [5] was inactive.
Regarding `CC(C)c1ccc2c(c1)CC[C@H]1[C@](C)(CNC(=O)c3cccs3)CCC[C@]21C`, the Activity entry in data set [1] and in [4] was “Non-toxic” each time. The result in data set [2], in data set [3] and in data set [5] was inactive.
`Cc1ccsc1C(=O)NC[C@]1(C)CCC[C@]2(C)c3ccc(C(C)C)cc3CC[C@@H]12`: the Activity entry in data set [1] and in data set [4] was “Non-toxic” each time. Moreover, the outcome in data set [2], in [3] and in data set [5] was inactive.
`CC(C)c1ccc2c(c1)CC[C@H]1[C@](C)(CNS(=O)(=O)c3cccc(F)c3)CCC[C@]21C`: the result in [9] was Active.
In the case of `CC(C)c1ccc2c(c1)CC[C@H]1[C@](C)(C(=O)O)CCC[C@]21C` [DEHYDROABIETIC ACID], the outcome in data set [6] was Active. Besides, the Activity entry in data set [7] and in [8] was “Non-toxic” in each case.
As for `CC(C)c1ccc2c(c1)CC[C@H]1[C@](C)(CNS(=O)(=O)c3cc(Cl)cc(Cl)c3)CCC[C@]21C`, in [9], the result was Active.
`CC(C)c1ccc2c(c1)CC[C@H]1[C@](C)(CNC(=O)c3cc4ccccc4o3)CCC[C@]21C`: the Activity entry in data set [1] and in [4] was “Non-toxic” throughout. Besides, the outcome in data set [2], in data set [3] and in data set [5] was inactive.
Regarding `Cc1nnsc1C(=O)NC[C@]1(C)CCC[C@]2(C)c3ccc(C(C)C)cc3CC[C@@H]12`, the Activity result in data set [1] and in data set [4] was “Non-toxic” in each case. Also, the outcome in data set [2], in data set [3] and in data set [5] was inactive.
Turning to `CC(C)C1=CC2=CC[C@@H]3[C@](C)(CCC[C@@]3(C)C(=O)O)[C@H]2CC1`, in data set [10], the outcome was inactive.
For `CC(C)c1ccc2c(c1)CC[C@H]1[C@](C)(CNS(=O)(=O)c3cc(Cl)cc(Cl)c3O)CCC[C@]21C`, the result in [9] was Active.
Consider `COc1cccc(C(=O)NC[C@]2(C)CCC[C@]3(C)c4ccc(C(C)C)cc4CC[C@@H]23)c1`, for which the Activity result in [1] and in data set [4] was “Non-toxic” each time. Moreover, the result in data set [2], in [3] and in data set [5] was inactive.
Regarding `Cc1csc(C(=O)NC[C@]2(C)CCC[C@]3(C)c4ccc(C(C)C)cc4CC[C@@H]23)c1`, the Activity result in [1] and in data set [4] was “Non-toxic” each time. Further, the outcome in [2], in data set [3] and in data set [5] was inactive.
Consider `CC(C)c1ccc2c(c1)CC[C@H]1[C@](C)(CNC(=O)[C@@H]3C[C@H]3c3ccccc3)CCC[C@]21C`, for which the Activity result in [1] and in [4] was “Non-toxic” each time. Besides, the outcome in data set [2], in data set [3] and in data set [5] was inactive.
With `CC(C)c1ccc2c(c1)CC[C@H]1[C@](C)(CNC(=O)c3c(Cl)cc(Cl)cc3Cl)CCC[C@]21C`, the Activity result in [1] and in data set [4] was “Non-toxic” each time. For the same compound, the outcome in data set [2], in data set [3] and in data set [5] was inactive.
`CC(C)c1ccc2c(c1)CC[C@H]1[C@](C)(CNS(=O)(=O)c3ccc(Cl)c(Cl)c3)CCC[C@]21C`: the result in [9] was Active.
On to `CC(C)c1ccc2c(c1)CC[C@H]1[C@](C)(CNC(=O)CSc3ccccc3)CCC[C@]21C`, for which the Activity entry in data set [1] and in data set [4] was “Non-toxic” in each case. The outcome in [2], in [3] and in data set [5] was inactive.
For `CC(C)c1ccc2c(c1)CC[C@H]1[C@](C)(CNS(=O)(=O)c3cc(F)c(F)c(F)c3)CCC[C@]21C`, the outcome in data set [9] was Active.
On to `CC(C)c1ccc2c(c1)CC[C@H]1[C@](C)(CNC(=O)c3ccc(-c4ccccc4)cc3)CCC[C@]21C`, for which the Activity entry in [1] and in data set [4] was “Non-toxic” in each case. Also, the outcome in [2], in data set [3] and in data set [5] was inactive.
As for `CC(C)c1ccc2c(c1)CC[C@H]1[C@](C)(CNC(=O)c3ccc(C(F)(F)F)cc3)CCC[C@]21C`, the Activity entry in data set [1] and in data set [4] was “Non-toxic” in each case. Moreover, the result in data set [2], in data set [3] and in data set [5] was inactive.
As for `CC(C)c1ccc2c(c1)CC[C@H]1[C@](C)(CNC(=O)c3ccc(Cl)c([N+](=O)[O-])c3)CCC[C@]21C`, the Activity entry in [1] and in [4] was “Non-toxic” each time. Further, the outcome in data set [2], in [3] and in data set [5] was inactive.
Take `CC(C)c1ccc2c(c1)CC[C@H]1[C@](C)(CNC(=O)c3ccc(C#N)cc3)CCC[C@]21C`: the Activity entry in data set [1] and in data set [4] was “Non-toxic” each time. The outcome in [2], in data set [3] and in data set [5] was inactive.
As for `CC(C)c1ccc2c(c1)CC[C@H]1[C@](C)(CNC(=O)c3ccc(F)cc3)CCC[C@]21C`, the Activity entry in data set [1] and in [4] was “Non-toxic” each time. In addition, the result in data set [2], in [3] and in data set [5] was inactive.
As to `CC(C)c1ccc2c(c1)CC[C@H]1[C@](C)(CNC(=O)c3ccc(I)cc3)CCC[C@]21C`, the Activity result in data set [1] and in data set [4] was “Non-toxic” each time. In addition, the outcome in [2], in data set [3] and in data set [5] was inactive.
Regarding `CC(C)c1ccc2c(c1)CC[C@H]1[C@](C)(CNC(=O)N3CCCCC3)CCC[C@]21C`, the Activity entry in data set [1] and in data set [4] was “Non-toxic” throughout. Also, the result in [2], in [3] and in [5] was inactive.
Regarding `COc1ccc(C(=O)NC[C@]2(C)CCC[C@]3(C)c4ccc(C(C)C)cc4CC[C@@H]23)cc1`, the Activity entry in [1] and in [4] was “Non-toxic” throughout. For the same compound, the result in [2], in data set [3] and in data set [5] was inactive.
